# In patent publication US20230050653A1, “ROCK INHIBITOR AND PREPARATION METHOD THEREFOR AND USE THEREOF” (WUHAN LL SCIENCE AND TECHNOLOGY DEVELOPMENT CO., LTD., priority 2019, published 2023):
# Key:
# [1] = molecular target: T1, ROCK1 kinase (Homo sapiens, UniProt Q13464); assay: In vitro evaluation of ROCK1 kinase selectivity (HTRF KinEASE-STK time-resolved fluorometric assay); type: biochemical
# T1 construct: purchased Invitrogen
# Protocol: ROCK1 activity was detected using a 96-well (Cisbio) time-resolved fluorometric assay. The assay for ROCK1 was performed in the following assay buffer: 5 mM MgCl2 (Sigma), 1 mM DTT (Sigma) and 1× kinase buffer. The kinase buffer was used for dilution. 7.5 μL of ROCK1 kinase (Invitrogen) was added to a 96-well microplate to reach a final concentration of 0.4 ng/μL, and then 0.25 μL of test compound (DMSO content: 1%) was added. The mixture was incubated at room temperature for 0.5 h. To start the reaction, the kinase buffer was also used to mix ATP (Aladdin) and the substrate STK-substrate 2-biotin. 7.5 μL of the mixed solution was added to the microplate to reach final concentrations of 3.53 μM and 1 μM. The resulting mixture was incubated for 2 h at room temperature. […] was mixed with STK antibody-Cryptate, and then an appropriate volume of the mixture was mixed with an equal volume of streptavidin-XL665. 10 μL of the resulting mixture was added to stop the reaction. After further incubation for about 1 h, the microplate was read on a Molecular Devices SpectraMax i3x multifunctional microplate reader. The kinase buffer, the STK-substrate 2-biotin, the detection buffer, the STK antibody-Cryptate, and the streptavidin-XL665 were all from HTRF KinEASE-STK kit (Cisbio, 1000 tests, 61[…]).
# [2] = molecular target: T2, ROCK2 kinase (Homo sapiens, UniProt O75116); assay: In vitro evaluation of ROCK2 kinase activity (HTRF KinEASE-STK time-resolved fluorometric assay); type: biochemical
# T2 construct: purchased Invitrogen PV3759
# T2 sequence (O75116 whole entry): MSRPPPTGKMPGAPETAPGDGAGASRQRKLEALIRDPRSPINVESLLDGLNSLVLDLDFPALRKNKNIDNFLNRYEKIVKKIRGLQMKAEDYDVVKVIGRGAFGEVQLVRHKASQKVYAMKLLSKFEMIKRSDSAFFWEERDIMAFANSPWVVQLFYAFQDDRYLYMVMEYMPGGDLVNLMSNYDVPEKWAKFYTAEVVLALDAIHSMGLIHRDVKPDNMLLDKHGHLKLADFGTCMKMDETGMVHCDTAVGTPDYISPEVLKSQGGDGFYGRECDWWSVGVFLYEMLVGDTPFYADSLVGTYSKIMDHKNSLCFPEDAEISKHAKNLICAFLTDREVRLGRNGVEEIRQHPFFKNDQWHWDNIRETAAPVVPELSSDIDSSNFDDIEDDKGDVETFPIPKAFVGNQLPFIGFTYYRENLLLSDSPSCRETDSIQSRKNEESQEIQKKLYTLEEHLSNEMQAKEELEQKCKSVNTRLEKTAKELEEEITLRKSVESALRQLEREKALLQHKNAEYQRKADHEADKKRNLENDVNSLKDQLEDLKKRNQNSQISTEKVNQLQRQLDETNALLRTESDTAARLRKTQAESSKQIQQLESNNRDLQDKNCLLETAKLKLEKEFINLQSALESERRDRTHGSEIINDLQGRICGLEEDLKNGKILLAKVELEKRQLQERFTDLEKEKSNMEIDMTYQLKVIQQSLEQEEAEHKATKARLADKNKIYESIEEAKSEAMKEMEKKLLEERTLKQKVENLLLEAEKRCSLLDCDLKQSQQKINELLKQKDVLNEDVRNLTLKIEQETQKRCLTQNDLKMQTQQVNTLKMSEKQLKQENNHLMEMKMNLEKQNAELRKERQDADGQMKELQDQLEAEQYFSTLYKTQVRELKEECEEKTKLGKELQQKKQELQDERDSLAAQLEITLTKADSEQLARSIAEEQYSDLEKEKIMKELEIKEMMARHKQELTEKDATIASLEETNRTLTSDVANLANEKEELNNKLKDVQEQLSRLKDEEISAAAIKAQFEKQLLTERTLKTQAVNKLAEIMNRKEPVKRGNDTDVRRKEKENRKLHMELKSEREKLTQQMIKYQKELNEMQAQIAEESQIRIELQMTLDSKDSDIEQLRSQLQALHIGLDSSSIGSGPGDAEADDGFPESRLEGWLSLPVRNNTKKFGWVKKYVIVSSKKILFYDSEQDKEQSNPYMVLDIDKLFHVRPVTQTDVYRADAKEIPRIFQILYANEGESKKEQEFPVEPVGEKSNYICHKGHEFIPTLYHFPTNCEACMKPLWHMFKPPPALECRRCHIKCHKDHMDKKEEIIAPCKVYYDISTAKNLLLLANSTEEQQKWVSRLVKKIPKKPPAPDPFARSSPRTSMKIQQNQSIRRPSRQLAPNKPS
# Protocol: ROCK2 activity screening. ROCK2 activity was detected using a 96-well (Cisbio) time-resolved fluorometric assay. The assay for ROCK2 was performed in the following assay buffer: 5 mM MgCl2 (Sigma), 1 mM DTT (Sigma) and 1× kinase buffer. The kinase buffer was used for dilution. 7.5 μL of ROCK2 kinase (Invitrogen, PV3759) was added to a 96-well microplate to reach a final concentration of 0.4 ng/μL, and then 0.25 μL of test compound (DMSO content: 1% (volume fraction)) was added. The mixture was incubated at room temperature for 0.5 h. To start the reaction, the kinase buffer was used to mix ATP (Aladdin) and the substrate STK-substrate 2-biotin. 7.5 μL of the mixed solution was added to the microplate to reach final concentrations of 6.739 μM and 1 μM. The resulting mixture was incubated for 2 h at room temperature. 5 mL of detection buffer was mixed with STK antibody-Cryptate, and then an appropriate volume of the mixture was mixed with an equal volume of streptavidin-XL665. 10 μL of the resulting mixture was added to the microplate to stop the reaction. After further incubation for about 1 h, the microplate was read on a Molecular Devices SpectraMax i3x multifunctional microplate reader. The kinase buffer, the STK-substrate 2-biotin, the detection buffer, the STK antibody-Cryptate, and the streptavidin-XL665 were all from HTRF KinEASE-STK kit (Cisbio, 1000 tests, 61[…]).
# T1 sequence (Q13464 whole entry): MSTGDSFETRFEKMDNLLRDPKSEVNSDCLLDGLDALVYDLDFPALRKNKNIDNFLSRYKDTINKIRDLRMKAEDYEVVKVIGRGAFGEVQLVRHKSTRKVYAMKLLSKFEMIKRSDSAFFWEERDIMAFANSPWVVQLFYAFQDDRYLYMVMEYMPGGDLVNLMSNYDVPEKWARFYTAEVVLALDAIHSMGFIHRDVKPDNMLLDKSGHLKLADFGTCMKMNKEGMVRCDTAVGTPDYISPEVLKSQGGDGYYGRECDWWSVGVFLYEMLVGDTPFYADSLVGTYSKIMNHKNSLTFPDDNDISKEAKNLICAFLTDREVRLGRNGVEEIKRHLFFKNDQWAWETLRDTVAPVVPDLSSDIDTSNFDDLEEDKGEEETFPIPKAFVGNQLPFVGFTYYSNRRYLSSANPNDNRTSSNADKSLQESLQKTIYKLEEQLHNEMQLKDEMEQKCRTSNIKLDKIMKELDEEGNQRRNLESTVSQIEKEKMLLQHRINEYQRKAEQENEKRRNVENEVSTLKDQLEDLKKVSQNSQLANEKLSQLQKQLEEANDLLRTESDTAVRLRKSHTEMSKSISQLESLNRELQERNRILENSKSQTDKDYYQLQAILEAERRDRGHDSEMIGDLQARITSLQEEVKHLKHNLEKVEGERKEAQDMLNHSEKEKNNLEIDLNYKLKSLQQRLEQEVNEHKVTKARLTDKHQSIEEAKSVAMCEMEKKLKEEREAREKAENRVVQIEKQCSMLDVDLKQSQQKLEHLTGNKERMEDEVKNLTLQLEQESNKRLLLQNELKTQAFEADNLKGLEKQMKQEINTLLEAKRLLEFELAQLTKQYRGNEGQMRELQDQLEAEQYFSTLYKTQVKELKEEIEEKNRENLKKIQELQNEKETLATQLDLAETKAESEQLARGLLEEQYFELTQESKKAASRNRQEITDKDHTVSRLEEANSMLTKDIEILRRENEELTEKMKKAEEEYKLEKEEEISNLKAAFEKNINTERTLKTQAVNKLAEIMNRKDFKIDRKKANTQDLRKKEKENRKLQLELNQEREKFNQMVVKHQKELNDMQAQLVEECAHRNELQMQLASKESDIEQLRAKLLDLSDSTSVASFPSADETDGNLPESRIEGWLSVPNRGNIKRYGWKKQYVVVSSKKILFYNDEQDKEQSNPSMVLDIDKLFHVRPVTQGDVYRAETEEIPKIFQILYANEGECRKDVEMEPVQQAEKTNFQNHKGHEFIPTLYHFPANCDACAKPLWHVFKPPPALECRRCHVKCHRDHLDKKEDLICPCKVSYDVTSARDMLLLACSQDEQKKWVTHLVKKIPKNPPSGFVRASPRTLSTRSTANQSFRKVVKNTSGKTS
SMILES,IC50 [1],IC50 [2]
"CC(C)NC(=O)COc1cc(F)cc([C@@H](CO)NC(=O)N2CCc3cc(-c4cn[nH]c4)c(F)cc32)c1 [Compound T358, (5)-6-fluoro-N-(1-(3-fluoro-5-(2-(isopropylamino)-2-oxoethoxy)phenyl)-2-hydroxyethyl)-5-(1H-pyrazol-4-yl)indoline-1-carboxamide]",≤ 50 nM,≤ 50 nM
"COc1cc(F)cc([C@@H](CO)NC(=O)N2CCc3cc(-c4c[nH]nc4Cl)c(F)cc32)c1 [Compound T359, (S)-5-(3-chloro-1H-pyrazol-4-yl)-6-fluoro-N-(1-(3-fluoro-5-methoxyphenyl)-2-hydroxyethyl)indoline-1-carboxamide]",50 to 500 nM,≤ 50 nM
"COc1cc(F)cc([C@@H](CO)NC(=O)N2CCc3cc(-c4c[nH]nc4N)c(F)cc32)c1 [Compound T365, (S′)-5-(3-amino-1H-pyrazol-4-yl)-6-fluoro-N-(1-(3-fluoro-5-methoxyphenyl)-2-hydroxyethyl)indoline-1-carboxamide]",50 to 500 nM,≤ 50 nM
"CN(C)C[C@H](NC(=O)N1CCc2cc(-c3c[nH]nc3F)c(F)cc21)c1cc(F)cc(F)c1 [Compound T366-R, (R)-N-(1-(3,5-difluorophenyl)-2-(dimethylamino)ethyl)-6-fluoro-5-(3-fluoro-1H-pyrazol-4-yl)indoline-1-carboxamide]",500 to 5000 nM,50 to 500 nM
"CN(C)C[C@@H](NC(=O)N1CCc2cc(-c3c[nH]nc3F)c(F)cc21)c1cc(F)cc(F)c1 [Compound T366-S, (S)-N-(1-(3,5-difluorophenyl)-2-(dimethylamino)ethyl)-6-fluoro-5-(3-fluoro-1H-pyrazol-4-yl)indoline-1-carboxamide]",≤ 50 nM,≤ 50 nM
"CC(C)CNC(=O)COc1cc(F)cc([C@@H](CO)NC(=O)N2CCc3cc(-c4cn[nH]c4)c(F)cc32)c1 [Compound T367, (S)-6-fluoro-N-(1-(3-fluoro-5-(2-(isobutylamino)-2-oxoethoxy)phenyl)-2-hydroxyethyl)-5-(1H-pyrazol-4-yl)indoline-1-carboxamide]",≤ 50 nM,≤ 50 nM
"O=C(COc1cc(F)cc([C@@H](CO)NC(=O)N2CCc3cc(-c4cn[nH]c4)c(F)cc32)c1)NC1CC(F)(F)C1 [Compound T369, (S)-N-(1-(3-(2-((3,3-difluorocyclobutyl)amino)-2-oxoethoxy)-5-fluorophenyl)-2-hydroxyethyl)-6-fluoro-5-(1H-pyrazol-4-yl)indoline-1-carboxamide]",≤ 50 nM,≤ 50 nM
"COc1cc(F)cc([C@@H](CO)NC(=O)N2CCc3cc(-c4c[nH]nc4F)c(F)cc32)c1 [Compound T374, (S)-6-fluoro-5-(3-fluoro-1H-pyrazol-4-yl)-N-(1-(3-fluoro-5-methoxyphenyl)-2-hydroxyethyl)indoline-1-carboxamide]",≤ 50 nM,≤ 50 nM
"COc1cc(F)cc([C@@H](CO)NC(=O)N2CCc3cc(-c4c[nH]nc4C)c(F)cc32)c1 [Compound T381, (S)-6-fluoro-N-(1-(3-fluoro-5-methoxyphenyl)-2-hydroxyethyl)-5-(3-methyl-1H-pyrazol-4-yl)indoline-1-carboxamide]",≤ 50 nM,≤ 50 nM
COc1cccc(CCC(=O)N2CCc3cc(-c4c[nH]nc4N)c(F)cc32)c1 [Compound T383],500 to 5000 nM,500 to 5000 nM
"O=C(N[C@H](CO)c1cc(F)cc(OCC2CC2)c1)N1CCc2cc(-c3cn[nH]c3)c(F)cc21 [Compound T386, (S)-N-(1-(3-(cyclopropylmethoxy)-5-fluorophenyl)-2-hydroxyethyl)-6-fluoro-5-(1H-pyrazol-4-yl)indoline-1-carboxamide]",50 to 500 nM,≤ 50 nM
"O=C(NC1CCCC1)c1cc(F)cc(C(CO)NC(=O)N2CCc3cc(-c4cn[nH]c4)c(F)cc32)c1 (stereo not shown) [Compound T389, N-(1-(3-(cyclopentylcarbamoyl)-5-fluorophenyl)-2-hydroxyethyl)-6-fluoro-5-(1H-pyrazol-4-yl)indoline-1-carboxamide]",≤ 50 nM,≤ 50 nM

# Results, then the compound that gave them:
IC50 [1],IC50 [2],SMILES
≤ 50 nM,≤ 50 nM,"O=C(NC1CCCC1)c1cccc([C@@H](CO)NC(=O)N2CCc3cc(-c4cn[nH]c4)c(F)cc32)c1 [Compound T356-S, (S)-N-(1-(3-(cyclopentylcarbamoyl)phenyl)-2-hydroxyethyl)-6-fluoro-5-(1H-pyrazol-4-yl)indoline-1-carboxamide]"
500 to 5000 nM,50 to 500 nM,"CN(C)Cc1cc(F)cc(CNC(=O)c2ncn3cc(-c4cn[nH]c4)ccc23)c1 [Compound T360, N-(3-((dimethylamino)methyl)-5-fluorobenzyl)-6-(1H-pyrazol-4-yl)imidazo[1,5-a]pyridine-1-carboxamide]"
500 to 5000 nM,50 to 500 nM,"Nc1n[nH]cc1-c1cc2c(cc1F)N(C(=O)NCc1cc(F)cc(F)c1)CC2 [Compound T364, 5-(3-amino-1H-pyrazol-4-yl)-6-fluoro-N-(3,5-difluorobenzyl)indoline-1-carboxamide]"
500 to 5000 nM,50 to 500 nM,"O=C(NCc1cccc(F)c1)c1ncn2cc(-c3cn[nH]c3)ccc12 [Compound T368, N-(3-fluorobenzyl)-6-(1H-pyrazol-4-yl)imidazo[1,5-a]pyridine-1-carboxamide]"
≤ 50 nM,≤ 50 nM,"COc1cc(F)cc([C@@H](C)NC(=O)c2ncn3cc(-c4cn[nH]c4F)ccc23)c1 [Compound T370, (R)-6-(5-fluoro-1H-pyrazol-4-yl)-N-(1-(3-fluoro-5-methoxyphenyl)ethyl)imidazo[1,5-a]pyridine-1-carboxamide]"
≤ 50 nM,≤ 50 nM,"COc1cc(F)cc(C(CN)NC(=O)N2CCc3cc(-c4cn[nH]c4)c(F)cc32)c1 (stereo not shown) [Compound T371, N-(2-amino-1-(3-fluoro-5-methoxyphenyl)ethyl)-6-fluoro-5-(1H-pyrazol-4-yl)indoline-1-carboxamide]"
≤ 50 nM,≤ 50 nM,"COc1cc(F)cc(CNC(=O)N2CCc3c2ccc(-c2cn[nH]c2)c3F)c1 [Compound T372, 4-fluoro-N-(3-fluoro-5-methoxybenzyl)-5-(1H-pyrazol-4-yl)indoline-1-carboxamide]"
≤ 50 nM,≤ 50 nM,"COc1cc(F)cc([C@@H](CO)NC(=O)c2ncc3cc(-c4cn[nH]c4)ccn23)c1 [Compound T373, (5)-N-(1-(3-fluoro-5-methoxyphenyl)-2-hydroxyethyl)-7-(1H-pyrazol-4-yl)imidazo[1,5-a]pyridine-3-carboxamide]"
50 to 500 nM,≤ 50 nM,"O=C(NCc1cc(F)cc(OC(F)F)c1)N1CCc2cc(-c3cn[nH]c3)c(F)cc21 [Compound T375, N-(3-(difluoromethoxy)-5-fluorobenzyl)-6-fluoro-5-(1H-pyrazol-4-yl)indoline-1-carboxamide]"
500 to 5000 nM,50 to 500 nM,"O=C(NCc1cccc(OCC2CC2)c1)c1ncn2cc(-c3cn[nH]c3)ccc12 [Compound T376, N-(3-(cyclopropylmethoxy)benzyl)-6-(1H-pyrazol-4-yl)imidazo[1,5-a]pyridine-1-carboxamide]"
≤ 50 nM,≤ 50 nM,"COc1cc(F)cc([C@@H](CO)NC(=O)N2CCc3cc(-c4cn[nH]c4)c(F)cc32)c1 [Compound T377, (S)-6-fluoro-N-(1-(3-fluoro-5-methoxyphenyl)-2-hydroxyethyl)-5-(1H-pyrazol-4-yl)indoline-1-carboxamide]"
≤ 50 nM,≤ 50 nM,"O=C(NCC1CC1)c1cc(F)cc(CNC(=O)N2CCc3cc(-c4cn[nH]c4)c(F)cc32)c1 [Compound T378, N-(3-((cyclopropylmethyl)carbamoyl)-5-fluorobenzyl)-6-fluoro-5-(1H-pyrazol-4-yl)indoline-1-carboxamide]"
≤ 50 nM,≤ 50 nM,"CN1CC(NC(=O)c2cccc(CNC(=O)N3CCc4cc(-c5cn[nH]c5)c(F)cc43)c2)C1 [Compound T379, 6-fluoro-N-(3-((1-methylazetidin-3-yl)carbamoyl)benzyl)-5-(1H-pyrazol-4-yl)indoline-1-carboxamide]"
≤ 50 nM,≤ 50 nM,"O=C(NCC1CC1)c1cccc(CNC(=O)N2CCc3cc(-c4cn[nH]c4)c(F)cc32)c1 [Compound T382, N-(3-((cyclopropylmethyl)carbamoyl)benzyl)-6-fluoro-5-(1H-pyrazol-4-yl)indoline-1-carboxamide]"
